Experiment [1] concerns the target Kallikrein-7 (Homo sapiens, UniProt P49862). Kind of experiment: Fluorescence Intensity-based biochemical primary high throughput dose response assay to identify activators of kallikrein-7 (K7) zymogen.
Experiment [2] in a line: NIH-3T3 fibroblast cytotoxicity, dose response, cytotoxicity control, cell-based, fluorescence, Alamar Blue, secondary assay (AID 2327).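 Further: NIH-3T3 mouse fibroblasts cultured with fluconazole at 8 µg/mL.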 Type of experiment: functional.
Experiment [3] deals with BJ. Put plainly: cells. The format is functional, cell-based. The note with it: Homo sapiens.
Experiment [4] can be described thus: fluconazole-exposed Candida albicans growth modulators – fluorescence, retest, confirmation (AID 2467). Type of experiment: functional, cell-based.
Experiment [5] can be described thus: Trypanosoma cruzi growth suppression in host cells – NIH3T3 host cells, beta-gal luminescence, confirmation (AID 2044).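 Further: intracellular parasites grown in NIH/3T3 mouse fibroblasts as host cells; luminescent beta-galactosidase reporter signal from transgenic T. cruzi replicating inside host cells; inhibitors lower the luminescence signal.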 Type of experiment: functional, cell-based.
Experiment [6] in a line: DRD fibroblast viability loss – cell-based, non-viral oncogenic, luminescence, dose response (AID 1934). The format is functional. Conditions: Homo sapiens.
Experiment [7] deals with Hexokinase HKDC1 (Homo sapiens, UniProt Q2TB90). Put plainly: inhibition of HKDC1 glucose phosphorylation – biochemical, W721R variant, dose response (AID 504729). The format is functional.
In experiment [8] the target is DNA damage-inducible transcript 3 protein (Mus musculus, UniProt P35639). Type of experiment: functional, Cricetulus griseus.
For experiment [9], the system named is Vero. Kind of experiment: cells. Type of experiment: functional. The note with it: Chlorocebus sabaeus.
Experiment [10] has as its target Fatty acid synthase (Homo sapiens, UniProt P49327). Put plainly: inhibition of human FAS-TE enzyme activity – biochemical, endpoint fluorescence intensity, uHTS hits, dose response (AID 624327).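 Further: fluorescence from hydrolysis of an O-methyl fluorescein acyl ester substrate by the enzyme.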 Type of experiment: functional.
The target of experiment [11] is T1, Lysine-specific demethylase 4C (Homo sapiens, UniProt Q9H3R0).
T1 sequence (Q9H3R0 whole entry): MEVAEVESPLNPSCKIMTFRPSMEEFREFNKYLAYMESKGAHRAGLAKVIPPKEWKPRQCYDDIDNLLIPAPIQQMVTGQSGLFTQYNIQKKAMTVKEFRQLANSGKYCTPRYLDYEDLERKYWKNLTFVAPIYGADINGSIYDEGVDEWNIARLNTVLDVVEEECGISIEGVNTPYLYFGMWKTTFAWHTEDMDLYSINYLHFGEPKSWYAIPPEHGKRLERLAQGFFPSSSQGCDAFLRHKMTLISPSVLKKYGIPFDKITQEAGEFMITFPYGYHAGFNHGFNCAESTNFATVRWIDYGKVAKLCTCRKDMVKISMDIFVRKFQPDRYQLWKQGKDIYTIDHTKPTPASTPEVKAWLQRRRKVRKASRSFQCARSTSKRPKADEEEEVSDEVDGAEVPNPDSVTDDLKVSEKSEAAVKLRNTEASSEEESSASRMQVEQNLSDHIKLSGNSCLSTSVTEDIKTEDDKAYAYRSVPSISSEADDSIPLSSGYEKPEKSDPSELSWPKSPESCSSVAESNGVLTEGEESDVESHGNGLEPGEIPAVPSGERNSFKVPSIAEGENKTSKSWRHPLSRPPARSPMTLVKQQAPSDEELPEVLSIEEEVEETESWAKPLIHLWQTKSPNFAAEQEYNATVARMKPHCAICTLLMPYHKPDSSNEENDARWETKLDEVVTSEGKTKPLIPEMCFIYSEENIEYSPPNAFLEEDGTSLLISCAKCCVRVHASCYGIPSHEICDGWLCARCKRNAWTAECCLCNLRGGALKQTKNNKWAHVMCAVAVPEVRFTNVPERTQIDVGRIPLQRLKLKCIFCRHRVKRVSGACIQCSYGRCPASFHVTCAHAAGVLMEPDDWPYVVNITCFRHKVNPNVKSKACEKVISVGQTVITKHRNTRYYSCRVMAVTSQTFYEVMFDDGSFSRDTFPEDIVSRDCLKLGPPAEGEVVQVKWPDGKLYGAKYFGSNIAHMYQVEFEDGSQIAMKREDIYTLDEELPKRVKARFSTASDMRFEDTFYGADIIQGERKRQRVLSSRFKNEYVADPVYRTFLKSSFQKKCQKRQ
Kind of experiment: inhibition of JMJD2C H3K9me3 demethylation – biochemical, DELFIA europium, cherry-picked samples, dose response (AID 488835). The format is functional.

What is called EC50 is the concentration giving half of the maximal effect. For orientation: IC50 means the midpoint of a concentration-inhibition curve. The term CC50 denotes the concentration giving 50% cytotoxicity. In general, AC50 refers to the midpoint of the concentration-response curve, whichever way the signal moves.

Each structure is given as a SMILES string. Activity calls are given as the source filed them.

Sequence of Kallikrein-7 (P49862 whole entry): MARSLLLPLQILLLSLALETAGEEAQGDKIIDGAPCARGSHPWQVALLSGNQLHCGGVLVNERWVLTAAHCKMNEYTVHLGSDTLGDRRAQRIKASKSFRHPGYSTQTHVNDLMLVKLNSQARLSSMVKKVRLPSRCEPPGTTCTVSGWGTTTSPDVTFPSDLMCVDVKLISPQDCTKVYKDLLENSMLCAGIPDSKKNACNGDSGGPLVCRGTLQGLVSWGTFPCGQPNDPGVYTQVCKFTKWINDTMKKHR
Sequence of DNA damage-inducible transcript 3 protein (P35639 whole entry): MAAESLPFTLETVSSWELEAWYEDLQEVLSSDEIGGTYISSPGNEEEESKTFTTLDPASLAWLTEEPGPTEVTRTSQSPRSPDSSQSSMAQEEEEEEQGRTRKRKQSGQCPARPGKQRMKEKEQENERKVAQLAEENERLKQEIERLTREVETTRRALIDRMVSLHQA
Sequence of Hexokinase HKDC1 (Q2TB90 whole entry): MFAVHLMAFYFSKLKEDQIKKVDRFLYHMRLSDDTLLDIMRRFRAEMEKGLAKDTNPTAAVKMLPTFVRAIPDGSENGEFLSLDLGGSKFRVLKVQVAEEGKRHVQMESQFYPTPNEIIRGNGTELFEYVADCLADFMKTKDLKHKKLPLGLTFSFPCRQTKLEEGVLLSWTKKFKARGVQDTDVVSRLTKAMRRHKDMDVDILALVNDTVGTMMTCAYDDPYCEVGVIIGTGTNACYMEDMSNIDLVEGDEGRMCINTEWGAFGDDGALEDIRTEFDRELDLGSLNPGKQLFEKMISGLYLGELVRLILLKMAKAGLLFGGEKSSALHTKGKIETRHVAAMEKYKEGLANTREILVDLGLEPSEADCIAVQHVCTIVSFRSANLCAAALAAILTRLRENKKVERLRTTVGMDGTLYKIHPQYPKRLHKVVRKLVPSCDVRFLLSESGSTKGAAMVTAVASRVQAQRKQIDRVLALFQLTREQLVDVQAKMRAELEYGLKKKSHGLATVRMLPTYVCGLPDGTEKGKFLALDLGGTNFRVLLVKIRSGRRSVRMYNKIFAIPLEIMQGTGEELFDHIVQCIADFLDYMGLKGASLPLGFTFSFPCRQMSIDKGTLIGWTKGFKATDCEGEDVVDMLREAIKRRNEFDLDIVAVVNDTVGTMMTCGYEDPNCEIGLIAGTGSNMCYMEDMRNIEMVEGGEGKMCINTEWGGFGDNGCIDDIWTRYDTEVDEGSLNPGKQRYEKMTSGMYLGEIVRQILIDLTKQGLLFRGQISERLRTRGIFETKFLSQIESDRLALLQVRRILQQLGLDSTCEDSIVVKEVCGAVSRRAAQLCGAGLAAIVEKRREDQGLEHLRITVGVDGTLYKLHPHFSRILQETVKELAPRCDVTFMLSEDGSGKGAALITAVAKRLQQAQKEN
Sequence of Fatty acid synthase (P49327 whole entry): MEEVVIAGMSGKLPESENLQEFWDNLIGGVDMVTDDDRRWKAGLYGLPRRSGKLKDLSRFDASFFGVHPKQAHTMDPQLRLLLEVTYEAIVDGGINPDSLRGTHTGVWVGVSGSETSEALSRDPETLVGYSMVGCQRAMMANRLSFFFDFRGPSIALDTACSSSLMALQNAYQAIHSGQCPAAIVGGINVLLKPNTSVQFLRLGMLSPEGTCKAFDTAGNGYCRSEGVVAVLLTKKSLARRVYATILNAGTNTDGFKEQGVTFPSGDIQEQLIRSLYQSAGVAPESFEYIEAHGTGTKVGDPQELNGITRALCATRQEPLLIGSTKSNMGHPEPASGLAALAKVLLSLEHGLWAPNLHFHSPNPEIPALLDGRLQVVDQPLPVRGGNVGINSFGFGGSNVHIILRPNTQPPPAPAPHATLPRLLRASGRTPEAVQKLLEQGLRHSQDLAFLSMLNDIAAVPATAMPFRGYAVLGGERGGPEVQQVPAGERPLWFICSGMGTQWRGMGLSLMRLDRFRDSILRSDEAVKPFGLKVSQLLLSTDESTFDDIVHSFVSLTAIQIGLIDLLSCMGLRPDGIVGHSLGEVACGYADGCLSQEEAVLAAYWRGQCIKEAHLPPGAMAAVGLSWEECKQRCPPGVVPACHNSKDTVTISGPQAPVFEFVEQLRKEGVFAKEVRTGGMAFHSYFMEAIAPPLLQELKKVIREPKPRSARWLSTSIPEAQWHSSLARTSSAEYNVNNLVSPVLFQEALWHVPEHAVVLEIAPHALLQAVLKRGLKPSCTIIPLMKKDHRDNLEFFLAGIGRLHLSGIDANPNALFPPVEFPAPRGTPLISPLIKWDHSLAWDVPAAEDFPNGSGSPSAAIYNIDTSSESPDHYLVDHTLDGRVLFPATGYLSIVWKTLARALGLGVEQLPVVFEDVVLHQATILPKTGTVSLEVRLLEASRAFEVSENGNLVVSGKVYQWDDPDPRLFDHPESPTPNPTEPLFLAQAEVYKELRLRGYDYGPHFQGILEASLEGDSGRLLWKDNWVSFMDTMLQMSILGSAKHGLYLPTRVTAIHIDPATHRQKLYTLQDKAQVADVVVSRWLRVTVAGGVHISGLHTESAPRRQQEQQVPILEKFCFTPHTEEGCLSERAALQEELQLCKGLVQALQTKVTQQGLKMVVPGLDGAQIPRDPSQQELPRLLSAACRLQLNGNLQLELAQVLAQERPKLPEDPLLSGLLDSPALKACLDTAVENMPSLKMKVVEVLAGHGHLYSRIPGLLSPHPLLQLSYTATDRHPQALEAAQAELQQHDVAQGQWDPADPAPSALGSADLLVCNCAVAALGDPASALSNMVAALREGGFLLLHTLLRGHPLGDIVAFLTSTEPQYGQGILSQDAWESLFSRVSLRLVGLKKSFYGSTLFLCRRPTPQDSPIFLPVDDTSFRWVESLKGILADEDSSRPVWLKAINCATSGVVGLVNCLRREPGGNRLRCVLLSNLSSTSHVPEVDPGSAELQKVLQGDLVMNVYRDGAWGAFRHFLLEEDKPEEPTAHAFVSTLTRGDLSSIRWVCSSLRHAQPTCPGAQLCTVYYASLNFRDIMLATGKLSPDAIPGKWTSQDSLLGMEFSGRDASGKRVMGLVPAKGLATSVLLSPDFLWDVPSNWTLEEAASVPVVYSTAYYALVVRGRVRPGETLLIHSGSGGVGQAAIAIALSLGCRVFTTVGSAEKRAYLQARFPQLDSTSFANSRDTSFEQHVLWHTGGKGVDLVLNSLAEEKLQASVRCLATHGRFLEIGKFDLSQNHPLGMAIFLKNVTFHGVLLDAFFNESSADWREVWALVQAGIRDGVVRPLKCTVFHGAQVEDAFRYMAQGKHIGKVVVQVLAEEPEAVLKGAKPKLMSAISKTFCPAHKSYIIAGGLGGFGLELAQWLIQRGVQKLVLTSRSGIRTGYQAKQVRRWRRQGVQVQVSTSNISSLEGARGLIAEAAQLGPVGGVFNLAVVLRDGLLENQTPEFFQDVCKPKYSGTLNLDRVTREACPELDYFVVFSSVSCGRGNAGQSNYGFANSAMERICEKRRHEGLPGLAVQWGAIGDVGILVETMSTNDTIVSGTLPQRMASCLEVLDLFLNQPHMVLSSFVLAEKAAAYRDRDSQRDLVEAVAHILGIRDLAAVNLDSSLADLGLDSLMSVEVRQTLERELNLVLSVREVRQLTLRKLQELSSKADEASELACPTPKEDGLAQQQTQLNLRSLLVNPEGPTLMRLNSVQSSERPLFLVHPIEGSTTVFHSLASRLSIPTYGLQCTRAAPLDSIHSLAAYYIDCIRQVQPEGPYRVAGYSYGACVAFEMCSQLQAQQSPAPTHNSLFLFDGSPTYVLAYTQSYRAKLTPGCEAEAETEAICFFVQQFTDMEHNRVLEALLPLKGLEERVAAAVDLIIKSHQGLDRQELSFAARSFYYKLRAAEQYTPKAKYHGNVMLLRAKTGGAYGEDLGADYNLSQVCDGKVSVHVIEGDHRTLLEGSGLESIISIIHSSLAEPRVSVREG

As to `O=c1[nH]c(N2CCOCC2)cc2ccccc12`, in [1], the EC50 is > 69.6 µM (inactive).
Turning to `O=[N+]([O-])c1ccc(Sc2nc3ccccc3o2)c([N+](=O)[O-])c1`, the concentration giving a half-maximal response (EC50) was 5.82 µM (inconclusive) in experiment [2]; 8.14 µM (active) in experiment [3]; 1.37 µM (active) in experiment [4]; 1.27 µM (active) in [5]; 4.54 µM (inconclusive) in [6]. Also, the results for the IC50 in [7] and in experiment [10] were 37.4 µM (inactive) and 15.8 µM (active), respectively. The “Absolute IC50 (CHOP)” value in experiment [8] came out at 10 µM. Also, in experiment [9], the CC50 was 4.12 µM (active).
Regarding `O=C1c2ccccc2C(=O)C12OC2c1cccc2ccccc12` (stereo unspecified), the AC50 in experiment [11] was 6.61 µM (active).

For the origin of these results see ChEMBL document CHEMBL1201862, “PubChem BioAssay data set” (2004).
